Assay results from BigSolDB 2.1.

N=C(N)N.O=[N+]([O-])O
Settings | solubility (mole fraction)
in acetone, 278.15 K | 0.0003
in acetone, 283.15 K | 0.0005
in acetone, 288.15 K | 0.0009
in acetone, 293.15 K | 0.0016
in acetone, 298.15 K | 0.0029
in acetone, 303.15 K | 0.0052
in acetone, 308.15 K | 0.0092
in acetone, 313.15 K | 0.0158
in acetone, 323.15 K | 0.0503
in ethanol, 278.05 K | 0.003
in ethanol, 283.15 K | 0.0037
in ethanol, 288.35 K | 0.0043
in ethanol, 293.15 K | 0.0051
in ethanol, 298.25 K | 0.0062
in ethanol, 303.25 K | 0.007
in ethanol, 308.25 K | 0.0081
in ethanol, 313.05 K | 0.0094
in ethanol, 318.05 K | 0.0108
in ethanol, 323.25 K | 0.0124
in ethanol, 328.35 K | 0.0143
in methanol, 278.25 K | 0.0063
in methanol, 283.25 K | 0.0075
in methanol, 288.25 K | 0.0092
in methanol, 293.25 K | 0.0107
in methanol, 298.35 K | 0.0126
in methanol, 303.15 K | 0.0148
in methanol, 308.35 K | 0.0174
in methanol, 313.15 K | 0.0198
in methanol, 318.25 K | 0.0227
in methanol, 323.35 K | 0.0264
in methanol, 328.05 K | 0.0305
in n-propanol, 278.25 K | 0.0009
in n-propanol, 283.25 K | 0.0013
in n-propanol, 288.25 K | 0.0017
in n-propanol, 293.15 K | 0.002
in n-propanol, 298.35 K | 0.0029
in n-propanol, 303.15 K | 0.0041
in n-propanol, 308.35 K | 0.0048
in n-propanol, 313.15 K | 0.0061
in n-propanol, 318.25 K | 0.0077
in n-propanol, 323.15 K | 0.0092
in n-propanol, 328.05 K | 0.012
in water, 278.25 K | 0.009
in water, 283.35 K | 0.0112
in water, 288.25 K | 0.0136
in water, 292.95 K | 0.0157
in water, 298.25 K | 0.019
in water, 303.15 K | 0.0222
in water, 308.35 K | 0.0262
in water, 313.05 K | 0.0302
in water, 318.25 K | 0.0349
in water, 323.25 K | 0.0401
in water, 328.35 K | 0.0463
in water, 332.85 K | 0.0511
